Test results from paper PMC10354055, “An optimized Nurr1 agonist provides disease-modifying effects in Parkinson’s disease models” (Nature Communications, 2023).
Several values for one entry are separate records, joined by “and”; a condition that tells them apart may be missing. Identical values can stand only once.

Tests used:
[1] = molecular target: Nurr1-LBD (Homo sapiens, UniProt P43354); experiment: TR-FRET competition assay with HCQFluo; format: binding; details: Fig. 1i; for IC50: competition with HCQFluo
Description: TR-FRET assay was performed in PPI Terbium (Tb) detection buffer (PerkinElmer) and contained 0.2 µM of Nurr1-LBD, 0.5 µM of fluorescence-labeled hydroxy-CQ (HCQFluo; Proimaging) and serial concentrations of CQ, 4A7C-301 or RA (10^−4–10^6 nM). Rabbit anti-Nurr1 antibody (3 nM; prepared in our lab) and anti-rabbit IgG-Tb (1:400; Cisbio, 61PARTAF) were included in the assay solution as a donor complex. Assay solutions were loaded in a 384-well OptiPlate™ (PerkinElmer). After 2 h incubation in the dark at room temperature, the FRET signal was measured by excitation at 340 nm and emission at 520 nm for fluorescein and 495 nm for Tb using a VICTOR Nivo plate reader (PerkinElmer). Data were fit using the non-linear regression program in GraphPad Prism version 8.0.2.

[2] = system: mouse ventral mesencephalic (VM) primary cells; experiment: Dopaminergic gene expression, qRT-PCR, primary VM cells with 6-OHDA; format: cell-based; details: for dopaminergic gene expression (in words): VM primary cells, decreased by 6-OHDA, CQ 20 µM, 4A7C-301 0.5 µM
Description: Total RNA was extracted using the GeneJET RNA Purification Kit (Thermo Fisher Scientific) and 100 ng of RNA was subjected to cDNA synthesis using Invitrogen Superscript cDNA Synthesis Kit (Invitrogen) according to the manufacturer’s protocol. qRT-PCR was performed using a CFX Connect Real-Time System (Bio-Rad) in a 20 μl volume mixture containing 2X SsoAdvanced Universal SYBR Green Supermix (Bio-Rad), 100 ng/μl of forward and reverse primers, and 1 μl of cDNA sample. Gene expression levels were quantified by the 2^∆∆CT method (Ct of target gene—Ct of glyceraldehyde-3-phosphate dehydrogenase (GAPDH). The following primers were used for qRT-PCR: TH forward: 5′-[…]-3′, reverse: 5′-[…]-3′; DAT forward: 5′-[…]-3′, reverse: 5′-[…]-3′; AADC forward: 5′-[…]-3′, reverse: 5′-[…]-3′; VMAT2 forward: 5′-[…]-3′, reverse: 5′-[…]-3′; c-Ret forward: 5′-[…]-3′, reverse: 5′-[…]-3′; TNFα forward: 5′-[…]-3′; reverse: 5′-[…]-3′; GAPDH, forward 5′-[…]-3′, reverse 5′-[…]-3′.
Briefly, dissected VM brain tissues were collected in ice-cold Dulbecco’s phosphate-buffered saline (DPBS) and then mechanically dissociated using pipettes. Thereafter, dissociated tissues were incubated in 0.05 % Trypsin-EDTA (Invitrogen) for 5 min at 37 °C. The cell suspension was plated onto glass coverslips in 48-well plates pre-coated with […] poly-L-ornithine, 5 μg/ml Fibronectin or 1 μg/ml Laminin at a density of 2.0 × 10^5 cells/cm^2 in differentiation medium (1% heat-inactivated FBS, 2 mM L-glutamine, 50X B27 supplement, 100 μM ascorbic acid and 2 μg/ml bFGF in Neurobasal media).

[3] = system: MPTP-induced male mice; experiment: AIMs scoring (dyskinesia), MPTP-induced PD model mice; format: in vivo, mouse; details: for abnormal involuntary movements (AIMs) (in words): CQ 40, 4A7C-301 5, L-DOPA 50 mg/kg/day, i.p.; for AIMs score (20-140 min): Figure 4f, MPTP-induced mice, individual animal values
Description: Male C57BL/6 J mice (8–10 weeks, 25–30 g; Jackson Laboratories) were randomly assigned to 5 groups including vehicle (VEH), MPTP, MPTP + L-DOPA, MPTP + CQ and MPTP + 4A7C-301 (n ≥ 7 for each group). MPTP (Sigma-Aldrich) was intraperitoneally (i.p.) injected (30 mg/kg) for 5 days (Day 1-5). Different dosages of CQ (20, 40, and 80 mg/kg) and 4A7C-301 (1, 5, 20 mg/kg) were first tested to determine the effective dose window, then 40 and 5 mg/kg doses were finally selected for CQ and 4A7C-301 respectively to show the most prominent effects. CQ or 4A7C-301 was dissolved in PBS and administrated (i.p.) for 16 days starting with MPTP injection (Day 1-16). To test dyskinetic involuntary behavior, an L-DOPA injected group was included, which received 50 mg/kg of L-DOPA and 15 mg/kg of benserazide (Sigma-Aldrich) (i.p.) for 16 days (Day 1–16). All compounds were administered 6 h post-MPTP injection to avoid any effect of compounds on the MPTP metabolism in the brain. Motor and non-motor related behavior tests were performed on the following days as described in Fig. 4a in an assessor- and observer-blinded fashion. Pre-training and baseline setup for motor-related behaviors were performed 3 days prior to the injections. Mice were sacrificed and subjected to immunohistochemistry. Mice were housed at the Animal Care Facilities of McLean Hospital under a 12-h light/12-h dark cycle, ambient temperature and humidity. Animals were handled in accordance with McLean Hospital’s Institutional Animal Care and Use Committee (Protocol #: 2015N000002) and followed National Institutes of Health guidelines.
Abnormal involuntary movements (AIMs) were scored using the developed mouse dyskinesia rating scale as described in Sebastianutto et al.. Briefly, 4 mice were recorded simultaneously with a Swann HD Security System (B&H Photo-Video Inc.) for 2 min per session, every 20 min during the 140 min following drug injections (i.e., total 7 sessions), on every other or third day (Day 2, 4, 7, 9, 11, 13, and 16). Dyskinetic movements were scored for 3 subtypes of basic AIMs including axial, forelimb and orolingual AIMs, based on the severity scale from 0 to 4 which measures the duration of AIMs (0 = no dyskinesia; 1 = display dyskinesia for <50% of the observation time; 2 = display dyskinesia for >50% of the observation time; 3 = display dyskinesia for the entire observation period but ceased upon external stimuli; 4 = display continuous and unceasing dyskinesia). To get a better and more sensitive validation of mice dyskinesia, we included an amplitude AIMs score, which rates the degree of deviation of body part or muscle position from its resting position on a 0-4 scale as previously described. Finally, global AIMs score was calculated by multiplying basic AIMs and amplitude AIMs scores for each subtype on each session. Data points were plotted as the grand total of individual AIMs score on each testing day.

Chain of Nurr1-LBD (P43354 360-595 limits assumed, species assumed): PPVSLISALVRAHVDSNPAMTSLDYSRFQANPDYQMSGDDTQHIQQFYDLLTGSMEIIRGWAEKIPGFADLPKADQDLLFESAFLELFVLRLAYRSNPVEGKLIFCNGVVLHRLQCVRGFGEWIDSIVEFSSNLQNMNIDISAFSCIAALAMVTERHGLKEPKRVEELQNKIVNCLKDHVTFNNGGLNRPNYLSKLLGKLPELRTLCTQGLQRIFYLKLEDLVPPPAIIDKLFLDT

| Structure (SMILES) | Interaction [HTRF] ([1]; 0.05 µM) | Interaction [HTRF] ([1]; 0.1 µM) | Interaction [HTRF] ([1]; 0.5 µM) | Interaction [HTRF] ([1]; 1 µM) | Interaction [HTRF] ([1]; 5 µM) | Interaction [HTRF] ([1]; 10 µM) | Interaction [HTRF] ([1]; 50 µM) | Interaction [HTRF] ([1]; 100 µM) | Interaction [HTRF] ([1]; 200 µM) | IC50 [1] | dopaminergic gene expression (in words) [2] | abnormal involuntary movements (AIMs) (in words) [3] | AIMs score (20-140 min) ([3]; day 2) | AIMs score (20-140 min) ([3]; day 4) | AIMs score (20-140 min) ([3]; day 7) | AIMs score (20-140 min) ([3]; day 9) | AIMs score (20-140 min) ([3]; day 11) | AIMs score (20-140 min) ([3]; day 13) | AIMs score (20-140 min) ([3]; day 16) | further results |
| --- | --- | --- | --- | --- | --- | --- | --- | --- | --- | --- | --- | --- | --- | --- | --- | --- | --- | --- | --- | --- |
| CCN(CC)CCCC(C)Nc1ccnc2cc(Cl)ccc12 (stereo not shown) [CQ, chloroquine] | 3273.3930 and 3465.5840 and 3369.4880 | 3399.0860 and 3151.8330 and 3275.4590 | 3111.7350 and 2901.1980 and 3006.4660 | 2895.7250 and 2781.2580 and 2838.4910 | 2113.6450 and 1994.2770 and 2053.9610 | 1574.8930 and 1346.8690 and 1460.8810 | 1485.2580 and 1344.1380 and 1414.6980 | 1202.4890 and 1355.5820 and 1279.0350 | 1193.4910 and 1136.9480 and 1165.2200 | 2330 nM and 2000 nM | significantly rescued | did not induce any detectable AIMs | 0 | 0 | 0 | 0 | 0 | 0 | 0 | – |
| CCN1CCN(c2cc(N3CCN(CC)CC3)nc(NCCNc3ccnc4cc(Cl)ccc34)n2)CC1 [4A7C-301, N^1-(4,6-bis(4-ethylpiperazin-1-yl)pyrimidin-2-yl)-N^2-(7-chloroquinolin-4-yl)ethane-1,2-diamine] | 3265.9820 and 3537.6830 and 3401.8330 | 3598.5100 and 3223.1060 and 3410.8080 | 3591.7500 and 3214.1330 and 3402.9410 | 2993.5610 and 3208.3240 and 3100.9430 | 3661.8470 and 3369.4680 and 3515.6580 | 3348.5030 and 3240.2560 and 3294.3790 | 3293.1070 and 2930.3900 and 3111.7480 | 3045.7890 and 3264.7900 and 3155.2890 | 3424.3450 and 3220.2860 and 3322.3150 | 108 nM and 100 nM | significantly rescued | did not induce any detectable AIMs | 0 | 0 | 0 | 0 | 0 | 0 | 0 | Relative mRNA levels (fold of Control), AADC ([2]; Fig. S5f/S5g, with 6-OHDA): 1.28 fold of Control and 1.13 fold of Control and 1.203 fold of Control; Relative mRNA levels (fold of Control), DAT ([2]; Fig. S5f/S5g, with 6-OHDA): 1.197 fold of Control and 1.193 fold of Control and 1.282 fold of Control; Relative mRNA levels (fold of Control), TH ([2]; Fig. S5f/S5g, with 6-OHDA): 0.9704 fold of Control and 1 fold of Control and 1.046 fold of Control; Relative mRNA levels (fold of Control), VMAT2 ([2]; Fig. S5f/S5g, with 6-OHDA): 0.9594 fold of Control and 0.8951 fold of Control and 0.9343 fold of Control; Relative mRNA levels (fold of Control), c-Ret ([2]; Fig. S5f/S5g, with 6-OHDA): 0.9509 fold of Control and 0.8338 fold of Control and 0.9285 fold of Control; Relative mRNA levels (fold of Control), AADC ([2]; Fig. S5f/S5g, without 6-OHDA): 1.446 fold of Control and 1.683 fold of Control and 1.592 fold of Control; Relative mRNA levels (fold of Control), DAT ([2]; Fig. S5f/S5g, without 6-OHDA): 2.907 fold of Control and 2.949 fold of Control and 3.159 fold of Control; Relative mRNA levels (fold of Control), TH ([2]; Fig. S5f/S5g, without 6-OHDA): 2.273 fold of Control and 2.094 fold of Control and 2.264 fold of Control; Relative mRNA levels (fold of Control), VMAT2 ([2]; Fig. S5f/S5g, without 6-OHDA): 1.573 fold of Control and 1.37 fold of Control and 1.5834 fold of Control; Relative mRNA levels (fold of Control), c-Ret ([2]; Fig. S5f/S5g, without 6-OHDA): 1.652 fold of Control and 1.7584 fold of Control and 1.7573 fold of Control; Relative mRNA levels (fold of Control), AADC ([2]; Fig. S5h/S5i, with 6-OHDA): 0.268 fold of Control and 0.3023 fold of Control and 0.2821 fold of Control; Relative mRNA levels (fold of Control), DAT ([2]; Fig. S5h/S5i, with 6-OHDA): 0.1919 fold of Control and 0.1982 fold of Control and 0.2381 fold of Control; Relative mRNA levels (fold of Control), TH ([2]; Fig. S5h/S5i, with 6-OHDA): 0.3682 fold of Control and 0.3362 fold of Control and 0.3267 fold of Control; Relative mRNA levels (fold of Control), VMAT2 ([2]; Fig. S5h/S5i, with 6-OHDA): 0.2168 fold of Control and 0.2497 fold of Control and 0.2445 fold of Control; Relative mRNA levels (fold of Control), c-Ret ([2]; Fig. S5h/S5i, with 6-OHDA): 0.2351 fold of Control and 0.2454 fold of Control and 0.2588 fold of Control; Relative mRNA levels (fold of Control), AADC ([2]; Fig. S5h/S5i, without 6-OHDA): 0.385 fold of Control and 0.3813 fold of Control and 0.3915 fold of Control; Relative mRNA levels (fold of Control), DAT ([2]; Fig. S5h/S5i, without 6-OHDA): 0.3184 fold of Control and 0.317 fold of Control and 0.3059 fold of Control; Relative mRNA levels (fold of Control), TH ([2]; Fig. S5h/S5i, without 6-OHDA): 0.5668 fold of Control and 0.4913 fold of Control and 0.5193 fold of Control; Relative mRNA levels (fold of Control), VMAT2 ([2]; Fig. S5h/S5i, without 6-OHDA): 0.4847 fold of Control and 0.4471 fold of Control and 0.4495 fold of Control; Relative mRNA levels (fold of Control), c-Ret ([2]; Fig. S5h/S5i, without 6-OHDA): 0.4648 fold of Control and 0.44 fold of Control and 0.4811 fold of Control |
